Results on one molecule are retold here after ChEMBL document CHEMBL5046282, “Discovery of Brain-Penetrant Glucosylceramide Synthase Inhibitors with a Novel Pharmacophore” (J Med Chem, 2022).

For orientation: IC50 means the concentration that gives 50% inhibition. Read a low IC50 as inhibition by little substance. One may read the chromatographic logD as lipophilicity estimated from chromatographic retention. Higher therefore signals higher lipophilicity. As a reminder, the inhibition is the change of the read-out against control, counted positive when it falls. Broadly, the clearance is a measure of how efficiently the substance is removed, as volume per time. A higher clearance goes with a high capacity for elimination. What is called Cmax is the peak of the concentration-time curve. The term AUC denotes the area under the concentration-time curve, a measure of exposure. The low end stands for low exposure, the high end for high exposure. Usually MRT stands for the average time that molecules of a dose stay in the body. In general, fraction unbound refers to the share of the substance not bound to proteins or other matrix. A higher fraction unbound goes with weak binding. As a reminder, the EC50 is the midpoint of the concentration-response curve. One may read the bioavailability as the share of a dose that reaches the circulation, judged against a reference dose that is usually intravenous.

Data set [1] deals with T1, Ceramide glucosyltransferase (Homo sapiens, UniProt Q16739).
T1 sequence (Q16739 whole entry): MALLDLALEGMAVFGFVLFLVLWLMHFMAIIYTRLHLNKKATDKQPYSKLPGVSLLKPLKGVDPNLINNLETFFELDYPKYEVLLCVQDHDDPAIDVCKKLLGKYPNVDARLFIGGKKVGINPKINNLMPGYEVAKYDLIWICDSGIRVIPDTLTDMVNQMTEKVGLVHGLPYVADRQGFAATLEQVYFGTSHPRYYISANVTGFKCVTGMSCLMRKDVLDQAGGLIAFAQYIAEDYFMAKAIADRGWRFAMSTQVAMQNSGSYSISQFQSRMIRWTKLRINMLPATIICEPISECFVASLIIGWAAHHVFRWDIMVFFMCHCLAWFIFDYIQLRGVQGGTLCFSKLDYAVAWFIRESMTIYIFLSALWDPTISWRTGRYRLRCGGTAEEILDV
The experiment in a line: Inhibition of human GCS using C8-ceramide and UDP-glucose as substrate incubated for 1 hr by RapidFire mass spectrometry.

Data set [2] in a line: 1-Octanol/aqueous buffer partition coefficient, logD of the compound at pH 7.4 by chromatographic method. Format: physicochemical.
The nature of data set [3]: Kinetic solubility of the compound in JP2 fluid at pH 6.8 by precipitation method. The note with it: read-out: Kinetic_solubility. Format: physicochemical.
Data set [4] is described as follows: Intrinsic clearance in mouse liver microsomes at 1 uM in presence of NADPH generating system assessed per mg protein by LC-MS/MS analysis. Format: ADME, Microsome. The note with it: read-out: CLH. In general terms: Microsomes from liver hold many membrane-bound enzymes, among them those of drug oxidation.
For data set [5], the target named is T2, CYP1A2 (Homo sapiens, UniProt P05177).
T2 sequence (P05177 whole entry): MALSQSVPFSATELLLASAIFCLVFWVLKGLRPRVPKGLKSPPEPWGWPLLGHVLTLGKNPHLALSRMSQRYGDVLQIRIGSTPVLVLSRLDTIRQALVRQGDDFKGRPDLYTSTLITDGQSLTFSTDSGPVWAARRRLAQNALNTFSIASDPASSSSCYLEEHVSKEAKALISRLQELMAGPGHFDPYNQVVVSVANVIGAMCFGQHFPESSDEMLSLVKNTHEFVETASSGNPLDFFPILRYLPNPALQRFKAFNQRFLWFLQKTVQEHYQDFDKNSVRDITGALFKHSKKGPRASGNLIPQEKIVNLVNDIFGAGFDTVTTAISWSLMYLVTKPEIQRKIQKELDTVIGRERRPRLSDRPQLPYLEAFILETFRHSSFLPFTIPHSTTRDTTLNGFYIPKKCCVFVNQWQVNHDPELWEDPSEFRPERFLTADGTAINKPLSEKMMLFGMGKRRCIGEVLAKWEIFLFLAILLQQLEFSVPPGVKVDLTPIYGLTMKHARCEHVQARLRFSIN
As to the kind of experiment: Inhibition of CYP1A2 in human liver microsomes using tacrine as substrate at 10 uM in presence of NADPH generating system incubated for 10 mins. Format: ADME. The settings on record: probe tacrine.

Data set [6] has as its target CYP2C9 (Homo sapiens, UniProt P11712). The experiment in a line: Inhibition of CYP2C9 in human liver microsomes using tolbutamide as substrate at 10 uM in presence of NADPH generating system incubated for 10 mins. Format: ADME. The settings on record: probe tolbutamide.
Data set [7] concerns the target CYP2D6 (Homo sapiens, UniProt P10635). As to the kind of experiment: Inhibition of CYP2D6 in human liver microsomes using dextromethorphan as substrate at 10 uM in presence of NADPH generating system incubated for 10 mins. Format: ADME. The note with it: probe dextromethorphan.
A short description of data set [8]: Plasma clearance in non-fasted ICR mouse at 0.5 mg/kg, iv by LC-MS/MS analysis. Format: ADME, organism-based.
Data set [9] can be described thus: Cmax in non-fasted ICR mouse at 5 mg/kg, po by LC-MS/MS analysis. Format: ADME, organism-based. On the set-up: route oral, dose 5 mg/kg. The settings on record: in vivo.
Data set [10] in a line: AUC in non-fasted ICR mouse at 5 mg/kg, po by LC-MS/MS analysis. Format: ADME, organism-based. On the set-up: dose 5 mg/kg. The settings on record: in vivo.
Data set [11] in a line: MRT in non-fasted ICR mouse at 5 mg/kg, po by LC-MS/MS analysis. Format: ADME, organism-based. The settings on record: in vivo.
Data set [12] can be described thus: Fraction unbound in plasma of non-fasted ICR mouse at 30 mg/kg, po measured after 1 hr by LC-MS/MS analysis. Format: ADME, organism-based.
Data set [13] can be described thus: Fraction unbound in brain of non-fasted ICR mouse at 30 mg/kg, po measured after 1 hr by LC-MS/MS analysis. Format: ADME, organism-based.
A short description of data set [14]: Ratio of unbound drug concentration in brain to plasma of non-fasted ICR mouse at 30 mg/kg, po measured after 1 hr by LC-MS/MS analysis. Format: ADME, organism-based. The settings on record: read-out: K(p,uu,brain).
Data set [15] concerns the target hERG (Homo sapiens, UniProt Q12809). As to the kind of experiment: Inhibition of hERG expressed in CHO-K1 cells at 30 uM by automated whole cell patch clamp assay. Format: toxicity, cell-based. The settings on record: CHO-K1 cells expressing hERG.
In data set [16] the target is Nav1.5 (Homo sapiens, UniProt Q14524). The experiment in a line: Inhibition of human Nav1.5 at 30 uM by automated whole cell patch clamp assay. Format: toxicity. A general note: In patch-clamp work, channel activity is measured electrically.
For data set [17], the system named is Mus musculus. As to the kind of experiment: In vivo inhibition of GCS activity in po dosed C57BL/6J mouse assessed as reduction in GlcCer level in cerebral cortex measured after 6 hrs. Format: functional, organism-based. The note with it: dose 30-300 mg/kg.
Data set [18] concerns the target Ceramide glucosyltransferase (Homo sapiens, UniProt Q16739). The experiment in a line: Inhibition of GCS in GBA mutant human fibroblasts assessed as reduction in glucosylceramide level incubated for 4 days by RapdiFire-MS/MS analysis. The settings on record: fibroblast. Format: cell-based.
Data set [19] is described as follows: Oral bioavailability in non-fasted ICR mouse at 5 mg/kg by LC-MS/MS analysis. Format: ADME, organism-based. The note with it: in vivo.
Data set [20] has as its target T3, Lysosomal acid glucosylceramidase (Homo sapiens, UniProt P04062).
T3 sequence (P04062 whole entry): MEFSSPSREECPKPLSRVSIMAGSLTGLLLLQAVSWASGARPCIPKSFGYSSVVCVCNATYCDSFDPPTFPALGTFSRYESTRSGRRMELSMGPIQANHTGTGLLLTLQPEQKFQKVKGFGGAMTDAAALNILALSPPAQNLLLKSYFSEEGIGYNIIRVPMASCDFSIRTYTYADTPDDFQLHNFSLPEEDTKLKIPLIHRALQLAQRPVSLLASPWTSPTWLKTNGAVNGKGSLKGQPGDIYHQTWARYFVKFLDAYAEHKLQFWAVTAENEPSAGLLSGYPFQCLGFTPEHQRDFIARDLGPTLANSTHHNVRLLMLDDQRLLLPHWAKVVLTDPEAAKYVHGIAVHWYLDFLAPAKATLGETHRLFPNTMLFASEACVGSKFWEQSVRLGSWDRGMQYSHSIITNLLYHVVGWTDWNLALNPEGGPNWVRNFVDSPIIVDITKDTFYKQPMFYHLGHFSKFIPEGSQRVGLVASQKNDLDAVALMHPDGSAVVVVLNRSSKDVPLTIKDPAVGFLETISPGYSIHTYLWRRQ
As to the kind of experiment: Inhibition of human recombinant GCase using 4-methylumbelliferyl beta-D-glucopyranoside as substrate incubated for 20 mins by fluorescence-based analysis.

A short description of data set [21]: Toxicity in Sprague-Dawley rat assessed as change in body weight at 30 to 300 mg/kg, po administered once daily for 3 days. Format: organism-based. The settings on record: in vivo, 72 h, dose 30-300 mg/kg, time 3 day.
The nature of data set [22]: Cardiotoxicity in human iPSC-derived cardiomyocytes assessed as minimum effective concentration required for intracellular calcium transients-mediated proarrhythmic activity by Fluo-4 dye based fluorescence analysis. Format: toxicity. The note with it: cardiac muscle cell. Background: Calcium assays in cells follow changes in intracellular calcium, usually with a dye or a luminescent sensor.

≈ marks a conversion by molar mass, not a printed value. Where only a bound is given, the exact number is not on record here.

Chain of hERG (Q12809 whole entry): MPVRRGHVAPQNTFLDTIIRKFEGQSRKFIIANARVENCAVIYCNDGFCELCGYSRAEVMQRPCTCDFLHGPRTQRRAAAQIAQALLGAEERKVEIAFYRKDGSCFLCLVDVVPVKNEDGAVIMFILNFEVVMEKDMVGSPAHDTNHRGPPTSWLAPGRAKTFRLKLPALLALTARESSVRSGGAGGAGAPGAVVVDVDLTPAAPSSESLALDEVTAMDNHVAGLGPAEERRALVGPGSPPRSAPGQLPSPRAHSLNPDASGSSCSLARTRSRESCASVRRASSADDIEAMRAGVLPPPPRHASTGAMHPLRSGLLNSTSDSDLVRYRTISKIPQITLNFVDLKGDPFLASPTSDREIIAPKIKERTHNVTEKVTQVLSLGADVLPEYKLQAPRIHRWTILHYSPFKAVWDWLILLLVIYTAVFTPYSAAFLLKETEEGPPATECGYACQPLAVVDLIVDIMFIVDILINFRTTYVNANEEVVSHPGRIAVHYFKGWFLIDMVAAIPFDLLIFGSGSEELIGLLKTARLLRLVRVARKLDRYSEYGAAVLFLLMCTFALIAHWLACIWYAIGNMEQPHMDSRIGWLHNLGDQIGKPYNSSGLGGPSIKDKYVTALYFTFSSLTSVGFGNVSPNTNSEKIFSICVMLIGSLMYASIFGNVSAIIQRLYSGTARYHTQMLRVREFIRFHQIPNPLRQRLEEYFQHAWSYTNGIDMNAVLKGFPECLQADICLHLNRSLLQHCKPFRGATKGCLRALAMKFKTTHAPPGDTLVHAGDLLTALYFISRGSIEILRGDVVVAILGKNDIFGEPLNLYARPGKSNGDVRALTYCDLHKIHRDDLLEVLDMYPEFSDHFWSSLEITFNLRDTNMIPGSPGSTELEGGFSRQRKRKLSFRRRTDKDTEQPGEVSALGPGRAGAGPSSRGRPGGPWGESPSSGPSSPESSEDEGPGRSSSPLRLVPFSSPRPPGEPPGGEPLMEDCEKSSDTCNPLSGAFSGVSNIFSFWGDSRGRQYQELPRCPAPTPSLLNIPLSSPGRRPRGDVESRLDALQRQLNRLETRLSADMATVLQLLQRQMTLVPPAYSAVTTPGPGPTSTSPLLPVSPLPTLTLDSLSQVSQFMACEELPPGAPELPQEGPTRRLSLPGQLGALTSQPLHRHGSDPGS
Chain of CYP2D6 (P10635 whole entry): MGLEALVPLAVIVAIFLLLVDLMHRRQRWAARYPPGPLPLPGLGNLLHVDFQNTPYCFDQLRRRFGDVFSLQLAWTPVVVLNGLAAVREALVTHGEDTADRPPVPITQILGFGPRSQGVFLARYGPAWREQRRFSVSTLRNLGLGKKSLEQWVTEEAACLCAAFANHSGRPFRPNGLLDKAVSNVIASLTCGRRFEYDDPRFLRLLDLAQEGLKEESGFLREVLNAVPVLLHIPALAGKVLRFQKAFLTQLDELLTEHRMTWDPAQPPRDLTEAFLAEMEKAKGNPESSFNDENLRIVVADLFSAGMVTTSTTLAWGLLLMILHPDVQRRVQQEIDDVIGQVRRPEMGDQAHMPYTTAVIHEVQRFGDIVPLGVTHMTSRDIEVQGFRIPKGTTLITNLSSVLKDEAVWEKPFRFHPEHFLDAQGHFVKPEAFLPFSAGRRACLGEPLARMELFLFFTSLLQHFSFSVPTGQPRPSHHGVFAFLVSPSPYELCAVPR
Chain of Nav1.5 (Q14524 whole entry): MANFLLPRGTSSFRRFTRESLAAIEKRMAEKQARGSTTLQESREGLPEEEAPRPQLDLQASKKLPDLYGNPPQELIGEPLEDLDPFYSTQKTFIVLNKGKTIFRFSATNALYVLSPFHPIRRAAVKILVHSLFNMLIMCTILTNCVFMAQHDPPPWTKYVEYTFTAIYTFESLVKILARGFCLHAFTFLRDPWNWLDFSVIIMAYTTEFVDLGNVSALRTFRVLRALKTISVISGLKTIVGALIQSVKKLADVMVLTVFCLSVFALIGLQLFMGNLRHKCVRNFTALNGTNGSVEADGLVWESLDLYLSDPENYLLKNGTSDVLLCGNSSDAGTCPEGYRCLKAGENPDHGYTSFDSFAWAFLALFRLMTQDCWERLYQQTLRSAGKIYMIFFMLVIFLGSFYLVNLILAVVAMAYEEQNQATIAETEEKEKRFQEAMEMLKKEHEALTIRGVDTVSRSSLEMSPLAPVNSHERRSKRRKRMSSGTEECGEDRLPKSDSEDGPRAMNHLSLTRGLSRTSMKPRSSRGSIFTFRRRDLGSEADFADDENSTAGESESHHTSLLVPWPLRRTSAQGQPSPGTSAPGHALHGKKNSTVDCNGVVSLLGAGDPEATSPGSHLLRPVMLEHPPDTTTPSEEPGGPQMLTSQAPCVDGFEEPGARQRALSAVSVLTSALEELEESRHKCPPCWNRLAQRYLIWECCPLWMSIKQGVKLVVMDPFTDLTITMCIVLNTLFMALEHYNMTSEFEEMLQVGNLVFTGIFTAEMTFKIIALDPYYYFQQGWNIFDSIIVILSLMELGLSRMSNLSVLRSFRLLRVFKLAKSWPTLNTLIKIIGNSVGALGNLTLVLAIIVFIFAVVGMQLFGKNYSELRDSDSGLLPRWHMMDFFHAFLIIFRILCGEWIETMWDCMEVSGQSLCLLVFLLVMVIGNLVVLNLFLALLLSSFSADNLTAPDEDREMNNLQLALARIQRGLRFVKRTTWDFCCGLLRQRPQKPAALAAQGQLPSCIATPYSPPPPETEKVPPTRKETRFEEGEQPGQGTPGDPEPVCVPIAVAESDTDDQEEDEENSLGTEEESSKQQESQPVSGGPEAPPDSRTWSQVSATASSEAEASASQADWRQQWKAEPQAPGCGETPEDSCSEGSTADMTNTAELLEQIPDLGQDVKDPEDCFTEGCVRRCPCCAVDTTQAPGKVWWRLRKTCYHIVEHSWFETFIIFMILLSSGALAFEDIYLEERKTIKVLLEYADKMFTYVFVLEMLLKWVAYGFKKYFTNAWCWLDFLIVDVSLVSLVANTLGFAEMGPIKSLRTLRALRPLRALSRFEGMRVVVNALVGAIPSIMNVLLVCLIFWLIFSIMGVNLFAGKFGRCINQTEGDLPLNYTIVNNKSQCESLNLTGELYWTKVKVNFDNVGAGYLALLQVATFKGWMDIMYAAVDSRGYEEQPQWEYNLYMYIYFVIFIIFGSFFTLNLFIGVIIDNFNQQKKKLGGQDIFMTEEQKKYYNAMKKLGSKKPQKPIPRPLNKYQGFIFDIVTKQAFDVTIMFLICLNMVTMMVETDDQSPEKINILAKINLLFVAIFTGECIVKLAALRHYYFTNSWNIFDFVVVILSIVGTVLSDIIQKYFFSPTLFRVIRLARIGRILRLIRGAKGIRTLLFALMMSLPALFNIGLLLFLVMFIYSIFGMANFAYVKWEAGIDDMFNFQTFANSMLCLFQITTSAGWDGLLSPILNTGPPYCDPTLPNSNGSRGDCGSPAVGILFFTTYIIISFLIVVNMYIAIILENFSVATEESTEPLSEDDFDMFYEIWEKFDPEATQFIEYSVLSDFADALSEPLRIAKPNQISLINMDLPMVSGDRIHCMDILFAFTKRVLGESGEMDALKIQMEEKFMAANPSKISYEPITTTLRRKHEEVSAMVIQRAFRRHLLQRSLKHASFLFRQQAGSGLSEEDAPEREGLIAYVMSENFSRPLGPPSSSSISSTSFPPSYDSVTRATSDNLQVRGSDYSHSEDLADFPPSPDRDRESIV
Chain of CYP2C9 (P11712 whole entry): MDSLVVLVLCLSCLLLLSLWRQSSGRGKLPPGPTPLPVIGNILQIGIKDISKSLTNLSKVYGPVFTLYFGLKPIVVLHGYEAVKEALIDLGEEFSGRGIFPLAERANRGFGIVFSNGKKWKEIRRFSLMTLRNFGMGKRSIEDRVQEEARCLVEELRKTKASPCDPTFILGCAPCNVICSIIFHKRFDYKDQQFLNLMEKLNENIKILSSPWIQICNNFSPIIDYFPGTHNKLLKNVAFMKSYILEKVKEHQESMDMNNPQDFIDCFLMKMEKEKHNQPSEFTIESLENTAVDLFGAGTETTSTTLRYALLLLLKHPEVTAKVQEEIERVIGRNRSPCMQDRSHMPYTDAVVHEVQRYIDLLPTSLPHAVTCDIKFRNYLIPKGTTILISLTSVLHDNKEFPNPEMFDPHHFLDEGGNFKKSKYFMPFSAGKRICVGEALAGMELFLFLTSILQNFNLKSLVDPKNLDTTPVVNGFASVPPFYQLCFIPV

In data set [1], `CC(C)(O)c1ccc(NC(=O)c2ccnn(-c3ccccc3OCC(F)(F)F)c2=O)cc1` returned an IC50 of 15 nM. Also, in [2], the chromatographic logD turned out to be 2.42. In addition, the solubility kinetic in [3] was found to be 45 µg/mL (≈ 101 µM). The microsomal CLint at 1 µM in data set [4] was determined as 1 µL/min/mg. The inhibition at 10 min, 10 µM worked out at 9.3% in [5], 24.9% in [6] and 15.6% in [7]. The clearance in data set [8] is 33.7 mL/min/kg. Besides, the maximum concentration (Cmax) in data set [9] was 416 ng/mL. This molecule gave an exposure (AUC) in data set [10] of 829 ng·h/mL. For the same molecule, in data set [11], the mean residence time MRT is 1.91 h. Further, the values for the unbound share (fraction unbound) at 1 h in data set [12] and in data set [13] were 0.23 and 0.039, respectively. In addition, the Kp uu at 1 h in data set [14] was 0.26. Further, the values for the inhibition at 30 µM in [15] and in [16] were 8% and 20%, respectively. Moreover, in [17], the inhibition result was “Dose-Dependent Effect”. Also, the values for the EC50 in [18] and in data set [20] were 4.4 nM and over 300 µM, respectively. Moreover, the bioavailability in data set [19] amounted to 31%. The Activity result in data set [21] is “Non-Toxic”. In [22], the MEC was over 10 µM.
